This is an account of results in patent US20080254155A1, “Use of Ginkgo Biloba Extract in Preparation of a Composition for Lowering Cholesterol” (SHANGHAI BIOCHIP CO., LTD, priority 2005, published 2008).

The experiment relates to HepG2 cells. As to the kind of experiment: Cellular cholesterol in HepG2 cells (cholesterol test kit). Type of experiment: cell-based, human. As to conditions: HepG2, 1 μM lovastatin, 6-hr culture. On the procedure: 2) Cell Culture and Treatment • (1) Cell Source: HepG2 ATCC • (2) Condition of Culture • Medium: MEM (Minimum essential medium)+10% FBS • Incubation: 37° C., 5% CO2 • Passage and Collection: 0.05% trypsin+0.02% EDTA • (3) Cell Treatment:
Cells were cultured in petri dishes of φ×10 cm (falcon) and grown to the desired proliferation, then detached and transferred to a 6-well plate (falcon). The cells were allowed to adhere and proliferate to the desired density (about 60%-70% confluence), and then treated and grouped as indicated in the table below.
In order to minimize the interference from the cytokines and lipids in serum without sacrificing the growth, the medium was replaced with MEM+2% FBS during treatment.
For every batch of cells, each treatment was repeated in 6 replicates. The cells were treated at different time points and collected at the same time.
The cholesterol test kit from Shanghai JieMen Biotechnology Joint-Corporate was used in accordance to the manufacturer's instruction.

The structures appear in SMILES notation.

`CC[C@H](C)C(=O)O[C@H]1C[C@@H](C)C=C2C=C[C@H](C)[C@H](CC[C@@H]3C[C@@H](O)CC(=O)O3)[C@H]21` [Positive Control, lovastatin] yielded a Cellular cholesterol of 34.23 ± 2.38 μg/mg protein.
